Measurements taken from article PMC4906375, “Contribution of Amphipathicity and Hydrophobicity to the Antimicrobial Activity and Cytotoxicity of β-Hairpin Peptides” (ACS Infectious Diseases, 2016).
In brackets after ≈: the same amount, converted by molar mass. Read-outs that look alike come from different tables or passages of the source. Residues, ends and D or L forms follow the SMILES beside them.

Experiments:
[1] = tested on: K. pneumoniae ATCC 13883; format: cell-based, Klebsiella pneumoniae; details: ATCC 13883
Method: (§1) Both antibacterial and antifungal MIC assays were performed by a broth microdilution plate based method as per CLSI guidelines for antimicrobial susceptibility testing.[53],[54] […] Full assay details are included in the Supporting Information with a full list of strains tested in Table S1.
(§2) Antibacterial assay (Minimum Inhibitory Concentration [MIC]).
(§3) MIC assay was performed by a broth microdilution plate based method as per CLSI guidelines for antimicrobial susceptibility testing of aerobic bacteria.1 Compounds were prepared at 1.28 mg/mL solution in water. The tested strains, Table S1, were cultured in Luria broth (LB) (In Vitro Technologies, USB75852), at 37 °C overnight. A sample of culture was then diluted 40Pfold in fresh Muller Hinton broth (MHB) (Bacto laboratories, 211443) and incubated at 37 °C for 1.5P2 h. The compounds were serially diluted twoPfold across the wells, with compound concentrations ranging from 0.015 µg/mL to 512 µg/mL, plated in duplicate. The resultant midPlog phase cultures were diluted to the final concentration of 1×10^6 CFU/mL, then 50 µL was added to each well of the compoundP containing 96Pwell plates (Corning 3641, NonPbinding Surface [NBS]), giving a final compound concentration range of 0.008 µg/mL to 256 µg/mL and 5x10^5 CFU/mL. All the plates were covered and incubated at 37 °C for 18 h. MICs were determined visually, being defined as the lowest concentration showing no visible growth. Resazurin was added at 0.001% final concentration to each well and incubated for 2 h before MICs were rePread for confirmation using the colour change from blue to pink to indicate wells containing viable cells. The resazurin assay was added in some wells where some form of precipitate was present in otherwise clear wells, making it difficult to ascertain which wells had visible […]
(§4) Antifungal assay (Minimum Inhibitory Concentration [MIC]). MIC assay was performed by a broth microdilution plate based method as per CLSI guidelines for antimicrobial susceptibility testing.2 Fungi strains, Table S1, were cultured for 3 days on Yeast ExtractPPeptone Dextrose (YPD) (SigmaPAldrich, Y1500) agar at 30 °C. A yeast suspension of 1x10^6 to 5x10^6 CFU/mL was prepared from five colonies. These stock suspensions were diluted with Yeast Nitrogen Base (YNB) (Becton Dickinson, 233520) broth to a final concentration of 2.5 ×10^3 CFU/mL. All samples, compounds and standards were plated in 96Pwell plates (Corning 3641, NonPbinding Surface [NBS]), by adding 10 µL of 1.28 mg/mL stock solution to each well and 90 µL of media. Then, the samples were serial diluted (1:2) in 12 concentrations across the plate. The standard antifungal ranged from 256

[2] = tested on: K. pneumoniae ATCC 700603 (MDR); format: cell-based, Klebsiella pneumoniae; details: n = 4
Method: as §1, §2, §3, §4

[3] = tested on: K. pneumoniae BAA 2146 (NDM-1 pos); format: cell-based, Klebsiella pneumoniae; details: n = 4
Method: as §1, §2, §3, §4

[4] = tested on: B. subtilis ATCC 6051; experiment: microbe, parasite or virus in culture; format: cell-based, Bacillus subtilis; details: ATCC 6051
Method: as §1, §2, §3, §4

[5] = tested on: S. aureus ATCC 43300 (MRSA); experiment: microbe, parasite or virus in culture; format: cell-based, Staphylococcus aureus; details: S. aureus ATCC 43300 (MRSA); n = 4
Method: as §1, §2, §3, §4

[6] = Cytotoxicity, Alamar Blue (resazurin) assay; format: cell-based, human; details: human
Method: (§5) Cytotoxicity to HEK293 and HepG2 cells was determined using the Alamar Blue (resazurin) assay,[55],[56] with 24 h of incubation and either 1 or 10% serum concentration. Full assay details are included in the Supporting Information.
(§6) Cytotoxicity. Cytotoxicity to HEK293 and HepG2 cells was determined using the Alamar Blue (resazurin) assay,3, 4 For the assays supplemented with 1 % FBS as final concentration the cells were seeded one day prior to the assay (3,000 per 20 µL for HEK293 and 4,000 per 20 µL for HepG2) with DMEM + 2 % FBS. The compounds were prepared as described below, using DMEM with no FBS instead to give the final FBS concentration of 1 %.
(§7) The highest concentration the compounds were tested was 300 µg/mL. A dilution series of 1:3 fold steps in DMEM (GIBCOPInvitrogen, cat. no. 11995P073) + 10 % FBS was created (concentration range of 600 µg/mL – 0.28 µg/mL), and 20 µL of these 2x concentrated compound dilutions were added in duplicates to wells of a black wall, clear bottom 384Pwells cell culture plate. For the assays with 1 % FBS the compounds in 0 % FBS were added to the existing cell plates in 2 % FBS. 200 µM Tamoxifen (Sigma T5648) served as negative control and in addition a serial dilution of tamoxifen, starting at 200 µM (74 µg/mL), was included as a dose response control (1 in 2 dilution series for tamoxifen). For the assay with 10 % FBS, HepG2 cells were seeded at 5000 cells per well, in a volume of 20 µL in DMEM medium + 10 % of FBS and added to the 20 µL of compound solution (total volume of 40 µL), resulting in a final compound concentration range of 300 µg/mL to 0.14 µg/mL.
(§8) Cells were incubated together with the compounds for 20 h at 37 °C, 5 % CO2.
(§9) After the incubation, 5 µL of 100 µM (25 µg/mL) resazurin dissolved in PBS (final concentration was approximately 11 µM) was added to each well. The plates were then incubated for 3 h at 37 °C, 5 % CO2. The fluorescence intensity was read using the TECAN Infinite M1000 PRO with excitation/emission 560/590. The data was analysed by Graph Pad Prism software. Results are presented as the average percentage of control ± SD for each set of duplicate wells using the following equation: Cell survival % = (FISAMPLE – FINegative/FIUNTREATED –FINegative)*100. (100 µg/mL tamoxifen was set as 0 % survival, media

[7] = tested on: HEK293 cells; experiment: Cytotoxicity, Alamar Blue (resazurin) assay; format: cell-based, human; details: HEK293; highest concentration (300 μM) tested
Method: as §5, §6, §7, §8, §9

[8] = tested on: HepG2 cells; experiment: Cytotoxicity, Alamar Blue (resazurin) assay; format: cell-based, human; details: HepG2; highest concentration (300 μM) tested
Method: as §5, §6, §7, §8, §9

[9] = tested on: human erythrocytes; experiment: Hemolysis assay; details: 3 h, relative to 100% hemolysis by 1% Triton X-100
[10] = tested on: human erythrocytes; details: red cells of human, 3 h
[11] = HEK293 cells, HEK293, 1% FBS, read-out: cytotoxicity HEK293 1% FBS
[12] = HEK293 cells, HEK293, 10% FBS, read-out: cytotoxicity HEK293 10% FBS
[13] = HepG2 cells, HepG2, 1% FBS, read-out: cytotoxicity HepG2 1% FBS
[14] = HepG2 cells, HepG2, 10% FBS, read-out: cytotoxicity HepG2 10% FBS

SMILES	MIC [1] [µg/mL]	MIC [2] [µg/mL]	MIC [3] [µg/mL]	MIC [4] [µg/mL]	MIC [5] [µg/mL]	CC50 at 24 h [6, 11] [µg/mL]	CC50 at 24 h [6, 12] [µg/mL]	CC50 at 24 h [6, 13] [µg/mL]	CC50 at 24 h [6, 14] [µg/mL]	cytotoxicity at the highest concentration tested [7]	cytotoxicity at the highest concentration tested [8]	hemolysis (%) at 300 μg/mL [9]	hemolysis (%) at 300 μg/mL [10] [%]
CC[C@H](C)[C@H](NC(=O)[C@@H](NC(=O)[C@@H]1CCCN1C(=O)[C@@H](NC(=O)[C@@H]1CCCN1C(=O)[C@H](CCCCN)NC(=O)[C@H](CCCCN)NC(=O)[C@H](CO)NC(=O)CN)C(C)C)[C@@H](C)CC)C(=O)N[C@@H](Cc1ccc(O)cc1)C(=O)N[C@H]1CSSC[C@@H](C(=O)N[C@@H](CCC(N)=O)C(=O)N[C@@H](CCCNC(=N)N)C(=O)N[C@@H](CCSC)C(N)=O)NC(=O)[C@H](CCCCN)NC(=O)CNC(=O)[C@H]([C@@H](C)O)NC(=O)[C@H](CCCNC(=N)N)NC(=O)[C@H](CCCNC(=N)N)NC(=O)[C@H](CC(N)=O)NC1=O [thanatin]	8 (≈ 3.29 µM)	64 (≈ 26.3 µM)	256 (≈ 105 µM)	128 (≈ 52.6 µM)	256 (≈ 105 µM)	> 300	> 300	> 300	> 300	nontoxic	nontoxic	nonhemolytic	–
CC(C)[C@@H]1NC(=O)[C@H](CCCNC(=N)N)NC(=O)[C@H](Cc2ccccc2)NC(=O)[C@@H](NC(=O)[C@H](Cc2c[nH]c3ccccc23)NC(=O)[C@H](CCCNC(=N)N)NC(=O)[C@@H](N)CCCNC(=N)N)CSSC[C@@H](C(=O)N[C@@H](CCCNC(=N)N)C(N)=O)NC(=O)[C@H](CCCCN)NC(=O)[C@H](CCCNC(=N)N)NC(=O)[C@H](Cc2ccc(O)cc2)NC(=O)[C@@H]2CSSC[C@H](NC1=O)C(=O)N[C@@H](Cc1ccc(O)cc1)C(=O)N[C@@H](CCCNC(=N)N)C(=O)NCC(=O)N[C@@H](Cc1ccccc1)C(=O)N2 [polyphemusin-1] (HELM PEPTIDE1{R.R.W.C.F.R.V.C.Y.R.G.F.C.Y.R.K.C.R.[am]}$PEPTIDE1,PEPTIDE1,4:R3-17:R3|PEPTIDE1,PEPTIDE1,8:R3-13:R3$$$V2.0)	0.5 (≈ 0.204 µM)	1 (≈ 0.407 µM)	2 (≈ 0.815 µM)	0.25 (≈ 0.102 µM)	2 (≈ 0.815 µM)	36.6 ± 1.4 (≈ 14.9 µM)	188.5 ± 1.1 (≈ 76.8 µM)	36.5 ± 8.6 (≈ 14.9 µM)	254 ± 14.2 (≈ 104 µM)	–	–	–	–
[H][C@]12CSSC[C@]([H])(NC(=O)[C@]([H])([C@@H](C)CC)NC(=O)CNC(=O)[C@H](CCCNC(=N)N)NC(=O)[C@H](Cc3ccc(O)cc3)NC1=O)C(=O)N[C@@H](Cc1ccc(O)cc1)C(=O)N[C@@H](CCCNC(=N)N)C(=O)N[C@@H](CCCNC(=N)N)C(=O)N[C@H](C(=O)N[C@@H](CCCNC(=N)N)C(N)=O)CSSC[C@H](NC(=O)[C@H](Cc1c[nH]c3ccccc13)NC(=O)[C@@H](N)CCCCN)C(=O)N[C@@H](Cc1ccccc1)C(=O)N[C@@H](CCCNC(=N)N)C(=O)N[C@@H](C(C)C)C(=O)N2 [tachyplesin-1] (HELM PEPTIDE1{K.W.C.F.R.V.C.Y.R.G.I.C.Y.R.R.C.R.[am]}$PEPTIDE1,PEPTIDE1,3:R3-16:R3|PEPTIDE1,PEPTIDE1,7:R3-12:R3$$$V2.0)	0.125 (≈ 0.0552 µM)	0.25 (≈ 0.11 µM)	0.25 (≈ 0.11 µM)	0.125 (≈ 0.0552 µM)	1 (≈ 0.442 µM)	94.7 ± 1.1 (≈ 41.8 µM)	> 300	65.7 ± 1.5 (≈ 29 µM)	> 300	–	–	–	27.8 ± 3.9
CC(C)[C@@H]1NC(=O)CNC(=O)[C@H](CC(N)=O)NC(=O)[C@H](CCCNC(=N)N)NC(=O)[C@H](Cc2ccc(O)cc2)NC(=O)[C@H](C(C)C)NC(=O)[C@@H]2CSSC[C@H](NC(=O)[C@H](C(C)C)NC(=O)[C@H](CCCNC(=N)N)NC1=O)C(=O)N[C@@H](Cc1ccc(O)cc1)C(=O)N[C@@H](CCCNC(=N)N)C(=O)N[C@@H](CCCNC(=N)N)C(=O)N[C@H](C(=O)N[C@@H](CC(N)=O)C(=O)O)CSSC[C@H](NC(=O)[C@H](Cc1ccccc1)NC(=O)CN)C(=O)N[C@@H](Cc1c[nH]c3ccccc13)C(=O)N[C@@H](Cc1ccc(O)cc1)C(=O)N[C@@H](C(C)C)C(=O)N2 [arenicin-3] (HELM PEPTIDE1{G.F.C.W.Y.V.C.V.Y.R.N.G.V.R.V.C.Y.R.R.C.N}$PEPTIDE1,PEPTIDE1,3:R3-20:R3|PEPTIDE1,PEPTIDE1,7:R3-16:R3$$$V2.0)	1 (≈ 0.383 µM)	4 (≈ 1.53 µM)	4 (≈ 1.53 µM)	8 (≈ 3.06 µM)	64 (≈ 24.5 µM)	105 ± 1.8 (≈ 40 µM)	> 300	95.2 ± 4.1 (≈ 36.4 µM)	> 300	–	–	–	4.4 ± 1.1
